Results as given in US9808455B2.

Tested on: extra cellular levels of acetylcholine in the prefrontal cortex
Test: extracellular acetylcholine levels in the prefrontal cortex, preclinical studies in rats
Format: in vivo
Description: At a mechanistic level, pharmacodynamic interactions between an acetylcholinesterase inhibitor and a 5HT6 receptor antagonist are feasible. […] Although the underlying mechanism is still unknown, it is likely due to increases in the release of acetylcholine from cholinergic neurons, On the other hand, donepezil increases the extracellular levels of acetylcholine by inhibiting the acetylcholinesterase to reduce the degradation of acetylcholine.

O=S(=O)(c1ccccc1)c1cnc2c(N3CCNCC3)cccc2c1
extra cellular levels of acetylcholine in the prefrontal cortex: small increase
